This test relates to BDF1 mice, P388 leukemia ip, median survival T/C. In words: NCI In Vivo Anticancer Drug Screen. Data for tumor model P388 Leukemia (intraperitoneal) in B6D2F1 (BDF1) mice. As to conditions: endpoint: median survival time, higher = longer survival. Put shortly:
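In tumour-bearing mice, survival after compound treatment is set against the vehicle group and given as a quotient.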

The mark [1] stands for this setting: dose: 50.0 mg/kg/injection, schedule: Q04DX003 (ip), vehicle: Klucel (hydroxypropylcellulose) (HPC).
Where [2] appears, read: dose: 100.0 mg/kg/injection, schedule: Q04DX003 (ip), vehicle: Klucel (hydroxypropylcellulose) (HPC).
[3] abbreviates: dose: 200.0 mg/kg/injection, schedule: Q04DX003 (ip), vehicle: Klucel (hydroxypropylcellulose) (HPC).
Where [4] appears, read: dose: 25.0 mg/kg/injection, schedule: Q04DX003 (ip), vehicle: Klucel (hydroxypropylcellulose) (HPC).

“And” between values parts separate entries of the source, which are not always exact repeats. Equal values may be shown once. Toxic doses and inconclusive results are not listed.

As for `CC1(C)N=C(N)N=C(N)N1c1ccc(CCCCc2ccc(Cl)c(S(=O)(=O)F)c2)c(Cl)c1`, the T/C reads like this: (dose: 0.88 mg/kg/injection, schedule: Q01DX009 (ip), vehicle: saline) 118 % of control; (dose: 1.32 mg/kg/injection, schedule: Q01DX009 (ip), vehicle: saline) 109 % of control; (dose: 2.36 mg/kg/injection, schedule: Q04DX003 (ip), vehicle: saline) 106 % of control; (dose: 3.56 mg/kg/injection, schedule: Q04DX003 (ip), vehicle: saline) 123 % of control; (dose: 5.33 mg/kg/injection, schedule: Q04DX003 (ip), vehicle: saline) 108 % of control; (dose: 8.0 mg/kg/injection, schedule: Q04DX003 (ip), vehicle: saline) 115 % of control. Moreover, the T/C is, setting by setting: (dose: 8.33 mg/kg/injection, schedule: Q04DX003 (ip), vehicle: saline) 120 % of control; (dose: 12.0 mg/kg/injection, schedule: Q01DX009 (ip), vehicle: saline) 163 % of control; (dose: 12.5 mg/kg/injection, schedule: Q04DX003 (ip), vehicle: saline) 181 % of control; (dose: 18.0 mg/kg/injection, schedule: Q01DX009 (ip), vehicle: saline) 159 % of control; (dose: 25.0 mg/kg/injection, schedule: Q01DX009 (ip), vehicle: saline) 104 % of control; (dose: 50.0 mg/kg/injection, schedule: Q01DX009 (ip), vehicle: saline) 104 % of control. In addition, the T/C (dose: 50.0 mg/kg/injection, schedule: Q04DX003 (ip), vehicle: saline) was 113 % of control.

For `C=CCCCCCCCCC(=O)Cl`, the T/C was 108 % of control (dose: 100.0 mg/kg/injection, schedule: Q04DX003 (ip), vehicle: saline with Tween-80); 104 % of control (dose: 200.0 mg/kg/injection, schedule: Q04DX003 (ip), vehicle: saline with Tween-80); 100 % of control (dose: 400.0 mg/kg/injection, schedule: Q04DX003 (ip), vehicle: saline with Tween-80).

Consider `NNc1ncnc2c(C3OC(CO)C(O)C3O)[nH]nc12` (centres undefined), for which the T/C was 100 % of control (dose: 20.0 mg/kg/injection, schedule: Q01DX009 (ip), vehicle: water); 105 % of control (dose: 30.0 mg/kg/injection, schedule: Q01DX009 (ip), vehicle: water); 110 % of control (dose: 45.0 mg/kg/injection, schedule: Q01DX009 (ip), vehicle: water); 95 % of control (dose: 67.0 mg/kg/injection, schedule: Q01DX009 (ip), vehicle: water); 100 % of control (dose: 100.0 mg/kg/injection, schedule: Q01DX009 (ip), vehicle: water).

Turning to `CCC[CH2][Sn]1([CH2]CCC)[O]C(=O)C[S]1`, the T/C (dose: 0.78 mg/kg/injection, schedule: Q04DX003 (ip), vehicle: saline with Tween-80) was 100 % of control; the T/C (dose: 1.56 mg/kg/injection, schedule: Q04DX003 (ip), vehicle: saline with Tween-80) was 113 % of control; the T/C (dose: 2.0 mg/kg/injection, schedule: Q04DX003 (ip), vehicle: saline with Tween-80) is 112 % of control; the T/C (dose: 3.0 mg/kg/injection, schedule: Q04DX003 (ip), vehicle: saline with Tween-80) is 116 % of control.

In the case of `CCNC(C)(C)C(SSSC(c1cccs1)C(C)(C)NCC)c1cccs1` (centres undefined), the T/C reads like this: (dose: 100.0 mg/kg/injection, schedule: Q01DX001 (ip), vehicle: saline) 104 % of control; (dose: 200.0 mg/kg/injection, schedule: Q01DX001 (ip), vehicle: saline) 118 % of control.

For `Cc1cc(=O)[nH]c2c1CCCC2`, the T/C reads like this: (dose: 37.5 mg/kg/injection, schedule: Q01DX009 (ip), vehicle: saline with Tween-80) 92 % of control; (dose: 75.0 mg/kg/injection, schedule: Q01DX009 (ip), vehicle: saline with Tween-80) 99 % of control and 118 % of control; (dose: 150.0 mg/kg/injection, schedule: Q01DX009 (ip), vehicle: saline with Tween-80) 103 % of control; (dose: 300.0 mg/kg/injection, schedule: Q01DX009 (ip), vehicle: saline with Tween-80) 91 % of control.

Take `C=CCNC(=S)Nc1cc(Cl)ccc1C`: the T/C is, setting by setting: under setting [1], 95 % of control; under setting [2], 100 % of control; under setting [3], 109 % of control.

In the case of `O=C(O)CCN1C(=O)c2ccccc2C1=O`, the T/C by setting is: (dose: 100.0 mg/kg/injection, schedule: Q01DX009 (ip), vehicle: saline with Tween-80) 90 % of control; (dose: 200.0 mg/kg/injection, schedule: Q01DX009 (ip), vehicle: saline with Tween-80) 100 % of control.

For the molecule `COC(=O)/C(=N\NS(=O)(=O)c1ccc(C)cc1)c1ccccc1`, the T/C was 98 % of control under setting [4], 100 % of control under setting [1], 94 % of control under setting [2] and 93 % of control under setting [3].

For the molecule `Cc1ccc(C(=S)NC(=O)NS(C)(=O)=O)cc1`, the T/C reads like this: (dose: 100.0 mg/kg/injection, schedule: Q01DX001 (ip), vehicle: saline with Tween-80) 106 % of control; (dose: 200.0 mg/kg/injection, schedule: Q01DX001 (ip), vehicle: saline with Tween-80) 105 % of control; (dose: 400.0 mg/kg/injection, schedule: Q01DX001 (ip), vehicle: saline with Tween-80) 99 % of control.

For the molecule `C[n+]1c(/C=C\C=C\N2CCCCC2)sc2ccccc21`, the T/C is 114 % of control (dose: 0.16 mg/kg/injection, schedule: Q01DX009 (ip), vehicle: Klucel (hydroxypropylcellulose) (HPC)); 108 % of control (dose: 0.31 mg/kg/injection, schedule: Q01DX009 (ip), vehicle: Klucel (hydroxypropylcellulose) (HPC)); 119 % of control (dose: 0.63 mg/kg/injection, schedule: Q01DX009 (ip), vehicle: Klucel (hydroxypropylcellulose) (HPC)).

As for `CC(CC(=N)N)NC(=O)C1CCC(N)=N1` (centres undefined), the T/C is, setting by setting: (dose: 150.0 mg/kg/injection, schedule: Q01DX009 (ip), vehicle: saline) 98 % of control; (dose: 300.0 mg/kg/injection, schedule: Q01DX009 (ip), vehicle: saline) 98 % of control.

Regarding `Cc1cccc(CSc2ncnc3nc[nH]c23)n1`, the T/C runs as follows: (dose: 25.0 mg/kg/injection, schedule: Q01DX009 (ip), vehicle: Klucel (hydroxypropylcellulose) (HPC)) 100 % of control; under setting [4], 104 % of control; (dose: 50.0 mg/kg/injection, schedule: Q01DX009 (ip), vehicle: Klucel (hydroxypropylcellulose) (HPC)) 87 % of control; under setting [1], 100 % of control; (dose: 100.0 mg/kg/injection, schedule: Q01DX009 (ip), vehicle: Klucel (hydroxypropylcellulose) (HPC)) 91 % of control; under setting [2], 92 % of control and 104 % of control.
